Source: US9156810B2, “Treatment of inflammatory bowel disease” (ALLERGAN, INC., priority 2003, dated 2015)

Tests used:
hEP4 [1] = target: T1, hEP4 (Homo sapiens (Human), UniProt P35408); assay: Radioligand binding ([3H]PGE2), HEK-293 cell membranes expressing EP4 receptor; conditions: top number in Table 2
Protocol: (§1) HEK-293 cells stably expressing the human or feline FP receptor, or EP1, EP2, EP3, or EP4 receptors were washed with TME buffer, scraped from the bottom of the flasks, and homogenized for 30 sec using a Brinkman PT 10/35 polytron. TME buffer was added to achieve a final 40 ml volume in the centrifuge tubes (the composition of TME is 100 mM TRIS base, 20 mM MgCl2, […]; 10N HCl is added to achieve a pH of 7.4).
(§2) The cell homogenate was centrifuged at 19000 r.p.m. for 20 min at 4° C. using a Beckman Ti-60 rotor. The resultant pellet was resuspended in TME buffer to give a final 1 mg/ml protein concentration, as determined by Biorad assay. Radioligand binding competition assays vs. [^3H-]17-phenyl PGF2α, (5 nM) were performed in a 100 μl volume for 60 min. Binding reactions were started by adding plasma membrane fraction. The reaction was terminated by the addition of 4 ml ice-cold TRIS-HCl buffer and rapid filtration through glass fiber GF/B filters using a Brandel cell harvester. The filters were washed 3 times with ice-cold buffer and oven dried for one hour. Non-specific binding was determined with 10 uM unlabeled 17-phenyl PGF2α.
(§3) [^3H-] PGE2 (5 nM; specific activity 180 Ci mmol) was used as the radioligand for EP receptors. Binding studies employing EP1, EP2, EP3, EP4 were performed in duplicate in at least three separate experiments. A 200 μl assay volume was used. Incubations were for 60 min at 25° C. and were terminated by the addition of 4 ml of ice-cold 50 mM TRIS-HCl, followed by rapid filtration through Whatman GF/B filters and three additional 4 ml washes in a cell harvester (Brandel). Non-specific binding determined with 10^−5M of unlabeled PGE2.

hEP4 [2] = target: T1, hEP4; assay: FLIPR calcium signal, HEK-293(EBNA) cells expressing hEP4/Gqs5; format: cell-based; conditions: bottom number in Table 2, read-out: hEP4 functional EC50
Protocol: (§4) HEK-293(EBNA) cells, stably expressing one type or subtype of recombinant human prostaglandin receptors (prostaglandin receptors expressed: hDP/Gqs5; hEP1; hEP2/Gqs5; hEP3A/Gqi5; hEP4/Gqs5; hFP; hIP; hTP), were cultured in 100 mm culture dishes in high-glucose DMEM medium containing 10% fetal bovine serum, 2 mM 1-glutamine, 250 μg/ml geneticin (G418) and 200 μg/ml hygromycin B as selection markers, and 100 units/ml penicillin G, 100 μg/m streptomycin and 0.25 μg/m amphotericin B.
(§5) Cells were seeded at a density of 5×10^4 cells per well in Biocoat® Poly-D-lysine-coated black-wall, clear-bottom 96-well plates (Becton-Dickinson) and allowed to attach overnight in an incubator at 37° C. Cells were then washed two times with HBSS-HEPES buffer (Hanks Balanced Salt Solution without bicarbonate and phenol red, 20 mM HEPES, pH 7.4) using a Denley Cellwash plate washer (Labsystems). After 45 minutes of dye-loading in the dark, using the calcium-sensitive dye Fluo-4 AM at a final concentration of 2 μM, plates were washed four times with HBSS-HEPES buffer to remove excess dye leaving 100 μl in each well. Plates were re-equilibrated to 37° C. for a few minutes.
Cells were excited with an Argon laser at 488 nm, and emission was measured through a 510-570 nm bandwidth emission filter (FLIPR™, Molecular Devices, Sunnyvale, Calif.). […] The peak increase in fluorescence intensity was recorded for each well. On each plate, four wells each served as negative (HBSS-HEPES buffer) and positive controls (standard agonists: BW245C (hDP); PGE2 (hEP1; hEP2/Gqs5; hEP3A/Gqi5; hEP4/Gqs5); PGF2 (hFP); carbacyclin (hIP); U-46619 (hTP), depending on receptor). The peak fluorescence change in each drug-containing well was then expressed relative to the controls.
(§6) Compounds were tested in a high-throughput (HTS) or concentration-response (CoRe) format. In the HTS format, forty-four compounds per plate were examined in duplicates at a concentration of 10^−5 M. To generate concentration-response curves, four compounds per plate were tested in duplicates in a concentration range between 10^−5 and 10^−11 M. The duplicate values were averaged.

hEP3D = hEP3D (Homo sapiens (Human), UniProt P43115); assay: Radioligand binding ([3H]PGE2), HEK-293 cell membranes expressing EP3 receptor; conditions: top number in Table 2
Protocol: as §1, §2, §3

hTP = hTP (Homo sapiens (Human), UniProt P21731); assay: Table 2 top number, hTP (radioligand binding per footnote); conditions: top number in Table 2
hEP1 = hEP1 (Homo sapiens (Human), UniProt P34995); assay: Radioligand binding ([3H]PGE2), HEK-293 cell membranes expressing EP1 receptor; conditions: top number in Table 2
Protocol: as §1, §2, §3

hEP3A = hEP3A (Homo sapiens (Human), UniProt P43115); assay: FLIPR calcium signal, HEK-293(EBNA) cells expressing hEP3A/Gqi5; format: cell-based; conditions: bottom number in Table 2, read-out: hEP3A functional EC50
Protocol: as §4, §5
Cells were excited with an Argon laser at 488 nm, and emission was measured through a 510-570 nm bandwidth emission filter (FLIPR™, Molecular Devices, Sunnyvale, Calif.). Drug solution was added in a 50 μl volume to each well to give the desired final concentration. The peak increase in fluorescence intensity was recorded for each well. On each plate, four wells each served as negative (HBSS-HEPES buffer) and positive controls (standard agonists: BW245C (hDP); PGE2 (hEP1; hEP2/Gqs5; hEP3A/Gqi5; hEP4/Gqs5); PGF2 (hFP); carbacyclin (hIP); U-46619 (hTP), depending on receptor). The peak fluorescence change in each drug-containing well was then expressed relative to the controls.
as §6, with “averaged. In either, HTS or CoRe format each compound was tested on at least 3 separate plates using cells from different passages to give an n≧3.” for “averaged.”

hTP, sequence (P21731 whole entry): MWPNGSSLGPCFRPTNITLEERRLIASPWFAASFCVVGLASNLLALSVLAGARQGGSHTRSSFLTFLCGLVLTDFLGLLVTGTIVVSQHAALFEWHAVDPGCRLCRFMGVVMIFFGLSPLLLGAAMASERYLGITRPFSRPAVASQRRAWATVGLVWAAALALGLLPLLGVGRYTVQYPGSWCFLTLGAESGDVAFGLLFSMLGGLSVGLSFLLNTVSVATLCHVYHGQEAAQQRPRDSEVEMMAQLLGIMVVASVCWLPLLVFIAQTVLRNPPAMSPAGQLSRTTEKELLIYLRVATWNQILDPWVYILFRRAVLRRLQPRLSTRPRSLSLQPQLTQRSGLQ
hEP3D, sequence (P43115 other isoform, or with tags, fused parts or gaps): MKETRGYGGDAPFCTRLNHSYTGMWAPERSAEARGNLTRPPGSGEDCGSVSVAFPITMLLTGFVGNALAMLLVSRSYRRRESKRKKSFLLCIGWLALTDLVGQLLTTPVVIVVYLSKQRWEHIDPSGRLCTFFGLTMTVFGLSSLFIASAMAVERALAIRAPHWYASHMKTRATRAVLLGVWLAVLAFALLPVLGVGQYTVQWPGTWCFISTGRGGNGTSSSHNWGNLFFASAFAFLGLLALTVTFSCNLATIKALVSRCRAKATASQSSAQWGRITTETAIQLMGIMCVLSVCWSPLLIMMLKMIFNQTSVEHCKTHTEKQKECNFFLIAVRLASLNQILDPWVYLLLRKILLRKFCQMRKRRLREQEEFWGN
hEP1, sequence (P34995 whole entry): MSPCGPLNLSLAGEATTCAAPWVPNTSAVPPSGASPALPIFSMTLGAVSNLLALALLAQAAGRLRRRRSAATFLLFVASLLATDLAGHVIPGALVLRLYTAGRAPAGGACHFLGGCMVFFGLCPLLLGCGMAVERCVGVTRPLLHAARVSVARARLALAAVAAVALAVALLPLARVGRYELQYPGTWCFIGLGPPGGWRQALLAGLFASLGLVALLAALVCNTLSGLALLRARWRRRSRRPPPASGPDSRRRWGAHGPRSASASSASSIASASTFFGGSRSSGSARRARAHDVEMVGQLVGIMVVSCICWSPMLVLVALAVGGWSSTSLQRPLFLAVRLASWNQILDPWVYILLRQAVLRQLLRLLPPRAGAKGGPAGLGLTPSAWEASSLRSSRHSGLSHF
T1 sequence (P35408 whole entry, looked up): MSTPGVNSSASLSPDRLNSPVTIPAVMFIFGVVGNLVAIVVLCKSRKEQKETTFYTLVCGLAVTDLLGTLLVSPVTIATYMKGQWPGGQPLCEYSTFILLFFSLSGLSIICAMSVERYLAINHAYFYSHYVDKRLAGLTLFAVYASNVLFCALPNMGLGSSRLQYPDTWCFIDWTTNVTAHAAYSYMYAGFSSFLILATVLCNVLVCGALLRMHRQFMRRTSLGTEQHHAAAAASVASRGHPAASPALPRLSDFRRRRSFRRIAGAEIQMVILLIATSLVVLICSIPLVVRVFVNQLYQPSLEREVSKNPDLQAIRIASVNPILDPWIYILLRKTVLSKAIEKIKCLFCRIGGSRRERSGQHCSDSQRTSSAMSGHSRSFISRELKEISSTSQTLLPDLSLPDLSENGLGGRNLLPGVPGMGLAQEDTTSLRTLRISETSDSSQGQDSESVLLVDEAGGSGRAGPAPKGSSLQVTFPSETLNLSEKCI
hEP3A, sequence (P43115 whole entry): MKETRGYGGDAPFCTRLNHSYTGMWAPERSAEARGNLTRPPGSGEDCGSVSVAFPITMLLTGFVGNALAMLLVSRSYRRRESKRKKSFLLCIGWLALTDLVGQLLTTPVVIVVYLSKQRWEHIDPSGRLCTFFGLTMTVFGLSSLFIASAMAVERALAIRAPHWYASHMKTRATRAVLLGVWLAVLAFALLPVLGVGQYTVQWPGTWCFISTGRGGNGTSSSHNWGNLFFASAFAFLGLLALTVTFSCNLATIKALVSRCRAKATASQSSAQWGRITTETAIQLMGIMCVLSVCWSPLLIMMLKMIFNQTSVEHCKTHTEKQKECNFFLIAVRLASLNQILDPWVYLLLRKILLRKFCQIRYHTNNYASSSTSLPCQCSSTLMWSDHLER

Row | SMILES | IC50 (hEP4 [1]) | EC50 (hEP4 [2]) | also measured
1 | COC(=O)CSCCCS[C@H]1C(=O)C(C)(C)[C@@H](O)[C@@H]1/C=C/C(O)CCc1sc2ccccc2c1Cl (single isomer, unassigned) [Compound 22] | 300 nM | 30 nM | –
2 | CC1(C)C(=O)[C@H](SCCCSCC(=O)O)[C@@H](/C=C/C(O)CCc2sc3ccccc3c2Cl)[C@@H]1O (single isomer, unassigned) [Compound 23] | 44 nM | 0.1 nM | hEP3D radioligand binding IC50 (hEP3D): > 10 µM; hTP radioligand binding IC50 (hTP): > 10 µM
3 | CC1(C)C(=O)[C@H](SCCCSCC(=O)O)[C@@H](/C=C/C(O)CCc2sc3ccccc3c2Cl)[C@@H]1O (single isomer, unassigned) [Compound 24] | 26 nM | 0.1 nM | hEP3D radioligand binding IC50 (hEP3D): >>10K
4 | COC(=O)CCC/C=C\C[C@H]1C(=O)C(C)(C)[C@@H](O)[C@@H]1/C=C/C(O)CCc1sc2ccccc2c1Cl (single isomer, unassigned) [Compound 38] | 2700 nM | 269 nM | –
5 | COC(=O)CCC/C=C\C[C@H]1C(=O)C(C)(C)[C@@H](O)[C@@H]1/C=C/C(O)CCc1sc2ccccc2c1Cl (single isomer, unassigned) [Compound 39] | 2300 nM | 141 nM | –
6 | CC1(C)C(=O)[C@H](C/C=C\CCCC(=O)O)[C@@H](/C=C/C(O)CCc2sc3ccccc3c2Cl)[C@@H]1O (single isomer, unassigned) [Compound 40] | 200 nM | 0.3 nM | hTP radioligand binding IC50 (hTP): > 10 µM
7 | CC1(C)C(=O)[C@H](C/C=C\CCCC(=O)O)[C@@H](/C=C/C(O)Cc2ccccc2)[C@@H]1O (single isomer, unassigned) [Compound 47] | 76 nM | – | IC50 (hEP1): 963 nM; hEP3D radioligand binding IC50 (hEP3D): > 10 µM
8 | COC(=O)CCC/C=C\C[C@H]1C(=O)C(C)(C)[C@@H](O)[C@@H]1/C=C/C(O)Cc1ccccc1 (single isomer, unassigned) [Compound 48] | 45 nM | – | –
9 | COC(=O)CCC/C=C\C[C@H]1C(=O)C(C)(C)[C@@H](O)[C@@H]1/C=C/C(O)Cc1ccccc1 (single isomer, unassigned) [Compound 49] | 1400 nM | – | –
10 | COC(=O)CCC/C=C\C[C@H]1C(=O)C(C)(C)[C@@H](O)[C@@H]1/C=C/C(O)CCc1ccccc1 (single isomer, unassigned) [Compound 51] | 700 nM | – | –
11 | CC1(C)C(=O)[C@H](C/C=C\CCCC(=O)O)[C@@H](/C=C/C(O)CCc2ccccc2)[C@@H]1O (single isomer, unassigned) [Compound 52] | 72 nM | 18 nM | IC50 (hEP1): 27 nM; IC50 (hEP3D): 60 nM
12 | CC1(C)C(=O)[C@H](C/C=C\CCCC(=O)O)[C@@H](/C=C/C(O)CCc2ccccc2)[C@@H]1O (single isomer, unassigned) [Compound 53] | 59 nM | 6.4 nM | IC50 (hEP1): 1020 nM; IC50 (hEP3D): 1860 nM
13 | CC1(C)C(=O)[C@H](C/C=C\CCCC(=O)O)[C@@H](/C=C/C(O)Cc2cc3ccccc3s2)[C@@H]1O (single isomer, unassigned) [Compound 54] | 20 nM | 0.3 nM | IC50 (hEP1): 308 nM; IC50 (hEP3D): 4700 nM
14 | CC1(C)C(=O)[C@H](C/C=C\CCCC(=O)O)[C@@H](/C=C/C(O)Cc2cc3ccccc3s2)[C@@H]1O (single isomer, unassigned) [Compound 55] | 310 nM | 38 nM | IC50 (hEP1): 758 nM; hEP3D radioligand binding IC50 (hEP3D): > 10 µM
15 | CCNC(=O)CCC/C=C\C[C@H]1C(=O)C(C)(C)[C@@H](O)[C@@H]1/C=C/C(O)Cc1cc2ccccc2s1 (single isomer, unassigned) [Compound 60] | – | – | hEP4 radioligand binding IC50 (hEP4 [1]): > 10 µM
16 | CCN(CC)C(=O)CCC/C=C\C[C@H]1C(=O)C(C)(C)[C@@H](O)[C@@H]1/C=C/C(O)Cc1cc2ccccc2s1 (single isomer, unassigned) [Compound 62] | 832 nM | – | –
17 | CCN(CC)C(=O)CCC/C=C\C[C@H]1C(=O)C(C)(C)[C@@H](O)[C@@H]1/C=C/C(O)Cc1cc2ccccc2s1 (single isomer, unassigned) [Compound 63] | 478 nM | – | hEP1 radioligand binding IC50 (hEP1): > 10 µM
18 | CC1(C)C(=O)[C@H](C/C=C\CCCC(=O)NCCO)[C@@H](/C=C/C(O)Cc2cc3ccccc3s2)[C@@H]1O (single isomer, unassigned) [Compound 64] | 4150 nM | – | –
19 | CC1(C)C(=O)[C@H](C/C=C\CCCC(N)=O)[C@@H](/C=C/C(O)Cc2cc3ccccc3s2)[C@@H]1O (single isomer, unassigned) [Compound 68] | 678 nM | – | hTP radioligand binding IC50 (hTP): > 10 µM
20 | CC1(C)C(=O)[C@H](C/C=C\CCCC(N)=O)[C@@H](/C=C/C(O)Cc2cc3ccccc3s2)[C@@H]1O (single isomer, unassigned) [Compound 69] | 5000 nM | – | hTP radioligand binding IC50 (hTP): > 10 µM
21 | COC(=O)CCC/C=C\C[C@H]1C(=O)C(C)(C)[C@@H](O)[C@@H]1/C=C/C(O)Cc1cc2ccccc2s1 (single isomer, unassigned) [Compound 70] | 219 nM | – | hEP3D radioligand binding IC50 (hEP3D): > 10 µM
22 | COC(=O)CCC/C=C\C[C@H]1C(=O)C(C)(C)[C@@H](O)[C@@H]1/C=C/C(O)Cc1cc2ccccc2s1 (single isomer, unassigned) [Compound 71] | 10000 nM | – | –
23 | COC(=O)CCCC#CC[C@H]1C(=O)C(C)(C)[C@@H](O)[C@@H]1/C=C/C(O)Cc1cc2ccccc2s1 (single isomer, unassigned) [Compound 72] | – | – | hEP4 radioligand binding IC50 (hEP4 [1]): > 10 µM
24 | CC1(C)C(=O)[C@H](CC#CCCCC(=O)O)[C@@H](/C=C/C(O)Cc2cc3ccccc3s2)[C@@H]1O (single isomer, unassigned) [Compound 74] | 256 nM | – | IC50 (hEP1): 2380 nM
25 | CC1(C)C(=O)[C@H](CC#CCCCC(=O)O)[C@@H](/C=C/C(O)Cc2cc3ccccc3s2)[C@@H]1O (single isomer, unassigned) [Compound 75] | – | – | IC50 (hEP1): 2050 nM; hEP4 radioligand binding IC50 (hEP4 [1]): > 10 µM; hTP radioligand binding IC50 (hTP): > 10 µM
26 | CCCCC[C@H](O)/C=C/[C@@H]1[C@@H](CC#CCCCC(=O)OC)C(=O)C(C)(C)[C@H]1O [Compound 42, 7-[(1R,4S,5R)-4-Hydroxy-5-((E)-(S)-3-hydroxy-oct-1-enyl)-3,3-dimethyl-2-oxo-cyclopentyl]-hept-5-ynoic acid methyl ester] | > 10000 nM | – | EC50 (hEP3A): 559 nM; IC50 (hEP3D): > 10000 nM
